Reference: ChEMBL document CHEMBL5291721, “A preclinical secondary pharmacology resource illuminates target-adverse drug reaction associations of marketed drugs” (Nat Commun, 2023)

What was measured:
Histamine H3 receptor = Histamine H3 receptor (Homo sapiens, UniProt Q9Y5N1)
D(3) dopamine receptor = D(3) dopamine receptor (Homo sapiens, UniProt P35462)
[1] = target: T1, Prostaglandin G/H synthase 1 (Rattus norvegicus, UniProt Q63921); format: functional
T1 sequence (Q63921 whole entry): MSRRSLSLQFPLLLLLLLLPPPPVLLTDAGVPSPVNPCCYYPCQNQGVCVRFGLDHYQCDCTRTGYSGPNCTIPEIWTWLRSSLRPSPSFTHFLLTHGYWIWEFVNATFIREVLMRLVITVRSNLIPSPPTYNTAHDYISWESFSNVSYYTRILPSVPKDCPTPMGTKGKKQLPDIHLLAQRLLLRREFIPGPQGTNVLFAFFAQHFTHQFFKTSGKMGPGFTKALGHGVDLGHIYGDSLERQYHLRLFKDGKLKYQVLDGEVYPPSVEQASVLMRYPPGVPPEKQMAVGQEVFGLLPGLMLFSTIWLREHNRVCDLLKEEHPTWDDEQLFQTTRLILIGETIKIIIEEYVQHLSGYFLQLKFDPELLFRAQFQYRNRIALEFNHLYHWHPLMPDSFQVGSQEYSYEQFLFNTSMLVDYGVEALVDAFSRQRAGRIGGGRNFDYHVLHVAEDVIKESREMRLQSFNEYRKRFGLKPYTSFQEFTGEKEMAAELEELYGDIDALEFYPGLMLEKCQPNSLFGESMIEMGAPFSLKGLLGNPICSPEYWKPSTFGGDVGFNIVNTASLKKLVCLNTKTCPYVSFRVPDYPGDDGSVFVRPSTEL

[2] = target: cGMP-inhibited 3',5'-cyclic phosphodiesterase 3A (Homo sapiens, UniProt Q14432); format: functional
Chain of cGMP-inhibited 3',5'-cyclic phosphodiesterase 3A (Q14432 whole entry): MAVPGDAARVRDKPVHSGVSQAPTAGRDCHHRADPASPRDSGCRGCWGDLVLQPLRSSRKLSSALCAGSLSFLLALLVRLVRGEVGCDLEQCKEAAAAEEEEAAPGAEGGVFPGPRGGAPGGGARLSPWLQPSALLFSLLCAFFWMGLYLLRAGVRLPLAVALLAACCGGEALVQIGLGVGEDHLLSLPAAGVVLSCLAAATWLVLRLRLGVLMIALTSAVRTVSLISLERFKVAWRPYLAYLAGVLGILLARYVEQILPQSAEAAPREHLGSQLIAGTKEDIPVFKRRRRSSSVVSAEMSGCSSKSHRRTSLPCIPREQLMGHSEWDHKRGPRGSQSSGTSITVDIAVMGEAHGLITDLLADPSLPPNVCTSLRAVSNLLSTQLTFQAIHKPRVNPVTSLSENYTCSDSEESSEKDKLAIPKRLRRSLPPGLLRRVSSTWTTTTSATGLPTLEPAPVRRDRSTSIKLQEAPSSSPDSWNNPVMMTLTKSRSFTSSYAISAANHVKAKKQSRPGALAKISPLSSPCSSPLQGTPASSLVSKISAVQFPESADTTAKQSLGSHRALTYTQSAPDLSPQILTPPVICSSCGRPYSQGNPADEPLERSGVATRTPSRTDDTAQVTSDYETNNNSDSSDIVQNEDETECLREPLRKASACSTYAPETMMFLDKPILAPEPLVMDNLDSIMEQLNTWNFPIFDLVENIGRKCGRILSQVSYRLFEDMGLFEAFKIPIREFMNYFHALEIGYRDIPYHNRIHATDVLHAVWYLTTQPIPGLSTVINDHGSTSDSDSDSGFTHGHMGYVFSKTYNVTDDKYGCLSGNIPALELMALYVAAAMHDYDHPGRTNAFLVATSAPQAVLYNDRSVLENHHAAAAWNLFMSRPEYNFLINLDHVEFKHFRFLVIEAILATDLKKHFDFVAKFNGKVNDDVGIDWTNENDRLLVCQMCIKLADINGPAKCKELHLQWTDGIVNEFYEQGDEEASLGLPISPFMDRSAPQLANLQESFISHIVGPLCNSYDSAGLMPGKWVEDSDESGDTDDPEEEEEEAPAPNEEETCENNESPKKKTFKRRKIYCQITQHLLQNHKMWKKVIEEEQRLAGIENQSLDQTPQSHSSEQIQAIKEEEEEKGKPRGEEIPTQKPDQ

D(1A) dopamine receptor = D(1A) dopamine receptor (Homo sapiens, UniProt P21728); format: functional, cell-based
Chain of D(1A) dopamine receptor (P21728 whole entry): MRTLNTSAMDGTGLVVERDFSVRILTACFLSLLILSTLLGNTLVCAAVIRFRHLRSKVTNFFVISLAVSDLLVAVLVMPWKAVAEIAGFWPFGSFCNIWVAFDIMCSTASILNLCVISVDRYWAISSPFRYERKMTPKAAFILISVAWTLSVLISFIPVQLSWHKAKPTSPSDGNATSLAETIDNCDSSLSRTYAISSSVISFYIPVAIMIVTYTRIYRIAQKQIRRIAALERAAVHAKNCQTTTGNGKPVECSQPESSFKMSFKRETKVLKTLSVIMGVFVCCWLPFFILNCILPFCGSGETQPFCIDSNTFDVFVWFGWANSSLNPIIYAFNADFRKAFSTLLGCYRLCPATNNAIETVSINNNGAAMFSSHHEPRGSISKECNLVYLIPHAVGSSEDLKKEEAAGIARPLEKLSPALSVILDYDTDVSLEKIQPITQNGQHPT

[3] = target: T2, Alpha-1A adrenergic receptor (Homo sapiens, UniProt P35348); format: functional, cell-based
T2 sequence (P35348 whole entry): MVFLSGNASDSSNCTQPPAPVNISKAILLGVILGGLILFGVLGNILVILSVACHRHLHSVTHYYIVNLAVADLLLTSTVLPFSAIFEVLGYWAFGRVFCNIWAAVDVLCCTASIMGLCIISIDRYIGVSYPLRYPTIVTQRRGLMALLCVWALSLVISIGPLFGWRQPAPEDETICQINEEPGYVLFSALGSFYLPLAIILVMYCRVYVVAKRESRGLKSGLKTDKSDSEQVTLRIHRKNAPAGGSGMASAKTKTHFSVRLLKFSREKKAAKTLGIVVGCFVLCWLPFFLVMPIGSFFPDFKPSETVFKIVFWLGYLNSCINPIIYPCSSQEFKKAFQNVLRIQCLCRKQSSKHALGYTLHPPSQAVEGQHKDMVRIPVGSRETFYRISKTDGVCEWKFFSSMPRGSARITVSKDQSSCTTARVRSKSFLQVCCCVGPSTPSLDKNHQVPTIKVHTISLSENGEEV

Histamine H2 receptor = Histamine H2 receptor (Homo sapiens, UniProt P25021); format: functional, cell-based
Chain of Histamine H2 receptor (P25021 whole entry): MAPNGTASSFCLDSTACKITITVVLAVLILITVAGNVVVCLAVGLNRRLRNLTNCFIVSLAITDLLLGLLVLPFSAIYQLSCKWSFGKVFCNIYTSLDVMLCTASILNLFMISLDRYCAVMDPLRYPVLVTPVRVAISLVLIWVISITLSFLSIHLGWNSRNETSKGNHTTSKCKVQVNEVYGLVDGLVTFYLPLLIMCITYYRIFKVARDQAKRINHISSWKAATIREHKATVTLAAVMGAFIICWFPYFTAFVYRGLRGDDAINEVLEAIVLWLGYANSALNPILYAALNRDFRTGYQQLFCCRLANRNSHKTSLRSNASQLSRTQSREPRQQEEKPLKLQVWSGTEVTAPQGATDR

[4] = target: Beta-1 adrenergic receptor (Homo sapiens, UniProt P08588); format: functional
Chain of Beta-1 adrenergic receptor (P08588 whole entry): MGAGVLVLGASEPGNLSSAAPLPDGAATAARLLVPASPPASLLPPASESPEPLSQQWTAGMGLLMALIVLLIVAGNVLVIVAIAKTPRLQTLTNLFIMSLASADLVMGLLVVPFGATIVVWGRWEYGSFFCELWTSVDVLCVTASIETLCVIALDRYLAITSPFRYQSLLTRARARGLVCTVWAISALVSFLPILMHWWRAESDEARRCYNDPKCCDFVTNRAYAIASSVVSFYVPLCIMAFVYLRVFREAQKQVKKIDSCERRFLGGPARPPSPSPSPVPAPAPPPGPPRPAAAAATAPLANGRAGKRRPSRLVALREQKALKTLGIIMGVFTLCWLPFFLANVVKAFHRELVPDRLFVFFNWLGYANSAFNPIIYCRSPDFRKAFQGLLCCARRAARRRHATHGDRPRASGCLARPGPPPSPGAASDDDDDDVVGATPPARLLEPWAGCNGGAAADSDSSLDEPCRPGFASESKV

Adenosine receptor A1 = target: T3, Adenosine receptor A1 (Homo sapiens, UniProt P30542)
T3 sequence (P30542 whole entry): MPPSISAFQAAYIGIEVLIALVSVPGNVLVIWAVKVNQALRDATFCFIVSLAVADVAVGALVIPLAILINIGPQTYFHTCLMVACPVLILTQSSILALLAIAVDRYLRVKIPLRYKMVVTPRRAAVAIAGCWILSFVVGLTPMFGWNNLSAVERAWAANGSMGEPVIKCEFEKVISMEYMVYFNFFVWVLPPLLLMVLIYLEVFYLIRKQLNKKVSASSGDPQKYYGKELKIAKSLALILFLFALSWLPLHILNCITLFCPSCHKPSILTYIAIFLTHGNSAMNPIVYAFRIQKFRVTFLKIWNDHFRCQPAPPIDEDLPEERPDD

[5] = target: T4, Amine oxidase [flavin-containing] A (Homo sapiens, UniProt P21397); format: functional
T4 sequence (P21397 whole entry): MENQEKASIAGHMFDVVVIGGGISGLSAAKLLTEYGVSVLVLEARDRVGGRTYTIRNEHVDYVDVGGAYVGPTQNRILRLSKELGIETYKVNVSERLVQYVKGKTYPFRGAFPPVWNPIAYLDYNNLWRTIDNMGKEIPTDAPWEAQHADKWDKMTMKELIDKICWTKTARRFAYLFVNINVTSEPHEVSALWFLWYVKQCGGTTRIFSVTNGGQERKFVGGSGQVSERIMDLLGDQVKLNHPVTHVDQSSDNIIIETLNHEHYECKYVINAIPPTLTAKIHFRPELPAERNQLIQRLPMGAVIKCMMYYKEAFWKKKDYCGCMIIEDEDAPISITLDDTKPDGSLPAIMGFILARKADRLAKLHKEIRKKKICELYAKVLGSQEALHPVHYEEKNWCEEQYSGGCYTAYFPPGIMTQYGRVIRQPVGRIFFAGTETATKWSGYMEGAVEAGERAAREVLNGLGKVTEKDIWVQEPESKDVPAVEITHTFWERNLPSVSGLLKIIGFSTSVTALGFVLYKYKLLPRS

[6] = target: Neuronal acetylcholine receptor subunit alpha-4 (Homo sapiens, UniProt P43681)
Chain of Neuronal acetylcholine receptor subunit alpha-4 (P43681 whole entry): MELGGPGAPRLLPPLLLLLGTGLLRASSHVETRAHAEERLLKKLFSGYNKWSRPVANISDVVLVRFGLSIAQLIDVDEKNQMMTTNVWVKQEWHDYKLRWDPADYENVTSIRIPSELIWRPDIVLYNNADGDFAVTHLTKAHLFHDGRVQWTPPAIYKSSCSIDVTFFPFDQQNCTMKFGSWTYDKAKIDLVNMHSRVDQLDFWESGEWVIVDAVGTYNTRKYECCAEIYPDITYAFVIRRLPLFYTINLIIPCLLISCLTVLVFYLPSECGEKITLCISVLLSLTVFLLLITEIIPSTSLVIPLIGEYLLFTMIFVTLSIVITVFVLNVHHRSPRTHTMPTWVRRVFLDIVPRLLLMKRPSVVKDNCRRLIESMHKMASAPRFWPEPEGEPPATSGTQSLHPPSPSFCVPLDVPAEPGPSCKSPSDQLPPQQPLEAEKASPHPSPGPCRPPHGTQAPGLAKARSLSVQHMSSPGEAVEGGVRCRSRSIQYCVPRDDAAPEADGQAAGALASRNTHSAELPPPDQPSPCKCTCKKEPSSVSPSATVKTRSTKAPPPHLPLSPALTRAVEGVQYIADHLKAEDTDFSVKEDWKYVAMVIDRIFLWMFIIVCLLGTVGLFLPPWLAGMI

[7] = target: Voltage-dependent L-type calcium channel subunit alpha-1C (Rattus norvegicus, UniProt P22002); format: functional
[8] = target: Kappa-type opioid receptor (Homo sapiens, UniProt P41145)
Chain of Kappa-type opioid receptor (P41145 whole entry): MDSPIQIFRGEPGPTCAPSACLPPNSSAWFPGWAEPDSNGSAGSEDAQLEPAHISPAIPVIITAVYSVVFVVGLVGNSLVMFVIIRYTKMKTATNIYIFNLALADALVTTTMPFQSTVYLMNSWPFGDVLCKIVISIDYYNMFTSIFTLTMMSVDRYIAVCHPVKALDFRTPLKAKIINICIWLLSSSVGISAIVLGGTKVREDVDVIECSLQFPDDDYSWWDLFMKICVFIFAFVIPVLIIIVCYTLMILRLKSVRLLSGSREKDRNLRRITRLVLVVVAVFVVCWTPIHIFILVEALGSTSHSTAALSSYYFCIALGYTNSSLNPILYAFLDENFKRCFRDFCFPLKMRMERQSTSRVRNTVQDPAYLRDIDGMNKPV

[9] = target: T5, Gastrin/cholecystokinin type B receptor (Homo sapiens, UniProt P32239)
T5 sequence (P32239 whole entry): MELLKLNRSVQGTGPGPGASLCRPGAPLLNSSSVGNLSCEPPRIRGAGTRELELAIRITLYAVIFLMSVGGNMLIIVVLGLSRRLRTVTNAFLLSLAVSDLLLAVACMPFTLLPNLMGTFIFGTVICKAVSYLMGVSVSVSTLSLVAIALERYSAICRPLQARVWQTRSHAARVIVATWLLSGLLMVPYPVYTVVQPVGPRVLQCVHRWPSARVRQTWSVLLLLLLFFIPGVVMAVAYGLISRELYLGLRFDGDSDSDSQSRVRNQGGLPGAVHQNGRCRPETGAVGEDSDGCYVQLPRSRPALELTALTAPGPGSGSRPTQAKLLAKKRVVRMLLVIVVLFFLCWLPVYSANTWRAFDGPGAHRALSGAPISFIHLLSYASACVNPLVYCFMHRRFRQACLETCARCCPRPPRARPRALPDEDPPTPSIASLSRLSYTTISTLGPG
Also: assay procedure not described here.

Chain of Histamine H3 receptor (Q9Y5N1 whole entry): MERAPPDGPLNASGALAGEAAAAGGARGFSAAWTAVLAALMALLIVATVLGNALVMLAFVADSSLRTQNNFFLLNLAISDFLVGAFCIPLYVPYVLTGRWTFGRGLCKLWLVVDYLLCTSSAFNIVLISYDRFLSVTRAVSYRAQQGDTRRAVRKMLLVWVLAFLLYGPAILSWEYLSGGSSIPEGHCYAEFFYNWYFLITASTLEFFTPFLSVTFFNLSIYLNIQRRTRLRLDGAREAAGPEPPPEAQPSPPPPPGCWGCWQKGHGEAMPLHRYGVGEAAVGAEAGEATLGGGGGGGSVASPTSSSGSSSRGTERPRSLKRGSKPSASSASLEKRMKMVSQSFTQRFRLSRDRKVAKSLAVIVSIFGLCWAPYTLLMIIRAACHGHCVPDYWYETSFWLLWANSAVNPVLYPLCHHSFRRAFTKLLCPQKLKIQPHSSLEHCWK
Chain of D(3) dopamine receptor (P35462 whole entry): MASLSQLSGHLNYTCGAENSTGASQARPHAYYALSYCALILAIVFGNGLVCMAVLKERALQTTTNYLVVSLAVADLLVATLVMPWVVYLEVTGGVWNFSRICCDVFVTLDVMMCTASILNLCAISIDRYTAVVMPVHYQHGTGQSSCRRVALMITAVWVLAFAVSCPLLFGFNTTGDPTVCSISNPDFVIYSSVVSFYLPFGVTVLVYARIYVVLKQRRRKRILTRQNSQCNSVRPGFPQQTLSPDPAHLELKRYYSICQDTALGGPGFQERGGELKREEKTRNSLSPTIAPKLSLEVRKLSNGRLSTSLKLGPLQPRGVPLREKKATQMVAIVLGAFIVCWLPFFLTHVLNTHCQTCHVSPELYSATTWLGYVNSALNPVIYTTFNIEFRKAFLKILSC

Structure (SMILES)	AC50 (Histamine H3 receptor) [µM]	AC50 (D(3) dopamine receptor) [µM]	AC50 [1] [µM]	AC50 [2] [µM]	AC50 (D(1A) dopamine receptor) [µM]	AC50 [3] [µM]	AC50 (Histamine H2 receptor) [µM]	AC50 [4] [µM]	AC50 (Adenosine receptor A1) [µM]	AC50 [5] [µM]	AC50 [6] [µM]	AC50 [7] [µM]	AC50 [8] [µM]	AC50 [9] [µM]
CC(=O)OCC(=O)[C@@]1(O)[C@H](C)C[C@H]2[C@@H]3CCC4=CC(=O)C=C[C@]4(C)[C@@]3(F)[C@@H](O)C[C@@]21C [DEXAMETHASONE ACETATE]	> 10	> 30	> 30	> 30	> 10	> 30	> 10	> 10	> 30	> 10	> 10	> 10	> 10	> 30
O=C(O)c1ccccc1Nc1cc(Cl)ccc1C(=O)O [LOBENZARIT]	> 30	> 30		> 30	> 30	> 30	> 30	> 30	> 30		> 30	> 30	> 30	> 10
Cc1ncc2n1-c1ccc(Cl)cc1C(c1ccccc1F)=NC2 [MIDAZOLAM]	> 10	10	> 30	> 30	> 30	> 30	> 30	> 10	> 30	> 10	> 10	> 10		> 30
C=C[C@@]1(C)CC(=O)[C@]2(O)[C@@]3(C)[C@@H](O)CCC(C)(C)[C@@H]3[C@H](O)[C@H](OC(C)=O)[C@@]2(C)O1 [COLFORSIN]	> 30	> 30	> 30	> 30		3.5		> 30	> 30	> 30	> 30	> 30	> 30	> 30
CCN(CC)CCN1C(=O)CN=C(c2ccccc2F)c2cc(Cl)ccc21 [FLURAZEPAM]	> 10	8.4	> 30	> 30	> 30	> 30	> 30	> 10	> 30	> 10	> 10	> 10	0.21	> 30
COc1ccc(-c2noc(CC(=O)O)c2-c2ccc(OC)cc2)cc1 [MOFEZOLAC]	> 30	> 30	0.037	13	> 30	> 30	> 30	> 30	> 30		> 30	> 30	> 30	> 10
